The values below come from patent publication US6472391B2, “Nitrogen-containing heterocyclic compounds” (Millennium Pharmaceuticals, Inc., priority 1996, dated 2002).

Structures are written as SMILES.

What is called melting point is the temperature of the solid-liquid transition. For `COc1cc2ncnc(N3CCN(C(=O)Nc4ccc(C)cc4)CC3)c2cc1OC` [Compound 17, 4-(6,7-Dimethoxy-4-quinazolinyl)-N-(4-tolyl)-1-piperazinecarboxamide], the melting point fell in the range of 225 to 228 °C.

For `COc1cc2ncnc(N3CCN(C(=O)Nc4ccc(F)cc4)CC3)c2cc1OC` [Compound 36, 4-(6,7-Dimethoxy-4-quinazolinyl)-N-(4-fluorophenyl)-1-piperazinecarboxamide], the melting point is 198 to 202 °C.

Molecule `COc1cc2ncnc(N3CCN(C(=O)NCc4ccccc4)CC3)c2cc1OC` [Compound 3, N-Benzyl-4-(6,7-dimethoxy-4-quinazolinyl)-1-piperazinecarboxamide] yielded a melting point of 167 to 168 °C.

The molecule `COc1cc2ncnc(N3CCN(C(=S)NCC(c4ccccc4)c4ccccc4)CC3)c2cc1OC` [Compound 11, 4-(6,7-Dimethoxy-4-quinazolinyl)-N-(2,2-diphenylethyl)-1-piperazinethiocarboxamide] returned a melting point of 93 to 94 °C.

For `COc1cc2c(N3CCN(C(=O)Nc4ccc([N+](=O)[O-])cc4)CC3)ncnc2c(OC)c1OC` [Compound 107, N-(4-Nitrophenyl)-4-(6,7,8-trimethoxy-4-quinazolinyl)-1-piperazinecarboxamide], the melting point fell in the range of 197 to 199 °C.

`CCn1nnc2cc3c(N4CCN(C(=O)Nc5ccc(Oc6ccccc6)cc5)CC4)ncnc3cc21` [Compound 124, 4-(3-Ethyl-3H-1,2,3-triazolo[4,5-g]quinazolin-8-yl)-N-(4-phenoxyphenyl)-1-piperazinecarboxamide] had a melting point of 167 to 168 °C.

For the molecule `CCOC(=O)c1cnc2cc(OC)c(OC)cc2c1N1CCN(C(=S)NCc2cccnc2)CC1` [Compound 410, 4-(6,7-Dimethoxy-3-ethoxycarbonyl-4-quinolyl)-N-(3-picolyl)-1-piperazinethiocarboxamide], the melting point was 92 to 94 °C.

In turn, `Cc1ccc2c(N3CCN(C(=S)NCc4cccnc4)CC3)ncnc2c1.Cl.Cl` came in with a melting point of 180 to 183 °C.

On to `COc1cc2ncnc(N3CCN(C(=S)NCc4ccc(Br)cc4)CC3)c2cc1OC` [Compound 185, N-(4-Bromobenzyl)-4-(6,7-dimethoxy-4-quinazolinyl)-1-piperazinethiocarboxamide], for which the melting point was 217 to 218 °C.

With `COc1cc2ncnc(N3CCN(C(=S)NCc4ccc(C)c(Cl)c4)CC3)c2cc1OC` [Compound 190, N-(3-Chloro-4-methylbenzyl)-4-(6,7-dimethoxy-4-quinazolinyl)-1-piperazinethiocarboxamide], the melting point is 108 to 110 °C.

`CCOc1cc2ncnc(N3CCN(C(=S)NCc4ccccc4)CC3)c2cc1OCC` [Compound 353, N-Benzyl-4-(6,7-diethoxy-4-quinazolinyl)-1-piperazinethiocarboxamide] gave a melting point of 134 to 136 °C.

In turn, `COc1cc2ncnc(N3CCN(C(=O)Nc4ccc(Oc5ccccc5)cc4)CC3)c2cc1OS(C)(=O)=O` [Compound 350, 4-(6-Mesyloxy-7-methoxy-4-quinazolinyl)-N-(4-phenoxyphenyl)-1-piperazinecarboxamide] registered a melting point of 228 to 229 °C.

Molecule `COc1cc2ncnc(N3CCN(C(=S)NCc4ccc(C(C)(C)C)cc4)CC3)c2cc1OC` [Compound 157, N-(4-tert-Butylbenzyl)-4-(6,7-dimethoxy-4-quinazolinyl)-1-piperazinethiocarboxamide] came in with a melting point of 104 to 105 °C.

On to `COc1cc2ncnc(N3CCN(C(=O)Nc4c(Cl)cccc4Cl)CC3)c2cc1OC` [Compound 52, N-(2,6-Dichlorophenyl)-4-(6,7-dimethoxy-4-quinazolinyl)-1-piperazinecarboxamide], for which the melting point is 202 to 207 °C.

For `COc1cc2ncnc(N3CCN(C(=S)Nc4cccc(C#N)c4)CC3)c2cc1OC` [Compound 238, N-(3-Cyanophenyl)-4-(6,7-dimethoxy-4-quinazolinyl)-1-piperazinethiocarboxamide], the melting point fell in the range of 169 to 170 °C.

`Cc1cccc2ncnc(N3CCN(C(=S)NCc4ccccc4)CC3)c12` [Compound 288, N-Benzyl-4-(5-methyl-4-quinazolinyl)-1-piperazinethiocarboxamide] registered a melting point of 165 to 167 °C.

`COc1cc2ncnc(N3CCN(C(=O)Nc4ccc(C(C)=O)cc4)CC3)c2cc1OC` [Compound 87, N-(4-acetylphenyl)-4-(6,7-dimethoxy-4-quinazolinyl)-1-piperazinecarboxamide] came in with a melting point of 220 to 222 °C.

For `COc1cc2ncnc(N3CCN(C(=S)NCc4ccc(C(C)C)cc4)CC3)c2cc1OC` [Compound 154, 4-(6,7-Dimethoxy-4-quinazolinyl)-N-(4-isopropylbenzyl)-1-piperazinethiocarboxamide], the melting point was in the range of 178 to 179 °C.

`CCOc1cc2ncnc(N3CCN(C(=S)NCc4ccccc4)CC3)c2cc1OC` [Compound 337, N-Benzyl-4-(7-ethoxy-6-methoxy-4-quinazolinyl)-1-piperazinethiocarboxamide] displayed a melting point of 168 to 169 °C.

In turn, `COc1cc2ncnc(N3CCN(C(=O)Nc4c(C(C)C)cccc4C(C)C)CC3)c2cc1OC` [Compound 31, N-(2,6-Diisopropylphenyl)-4-(6,7-dimethoxy-4-quinazolinyl)-1-piperazinecarboxamide] registered a melting point of 280 to 282 °C.

For the molecule `S=C(NCc1ccccc1)N1CCN(c2ncnc3ccccc23)CC1` [Compound 285, N-Benzyl-4-(4-quinazolinyl)-1-piperazinethiocarboxamide], the melting point fell in the range of 68 to 70 °C.

`COc1cc2c(N3CCN(C(=S)NCc4cccnc4)CC3)ncnc2cc1OC(C)C` [Compound 342, 4-(7-Isopropoxy-6-methoxy-4-quinazolinyl)-N-(3-picolyl)-1-piperazinethiocarboxamide] registered a melting point of 205 to 206 °C.

`COc1cc2ncnc(N3CCN(C(=O)Nc4ccc(C)c(C)c4)CC3)c2cc1OC` [Compound 30, 4-(6,7-Dimethoxy-4-quinazolinyl)-N-(3,4-dimethylphenyl)-1-piperazinecarboxamide]: the melting point lay in the range of 202 to 203 °C.

Turning to `C#CCNC(=S)N1CCN(c2ncnc3cc(OC)c(OC)cc23)CC1` [Compound 16, 4-(6,7-Dimethoxy-4-quinazolinyl)-N-(2-propynyl)-1-piperazinethiocarboxamide], the melting point lay within 158 to 160 °C.

`COc1cc2ncnc(N3CCN(C(=O)Nc4cc(C)cc(C)c4)CC3)c2cc1OC` [Compound 29, 4-(6,7-Dimethoxy-4-quinazolinyl)-N-(3,5-dimethylphenyl)-1-piperazinecarboxamide]: the melting point is 223 to 226 °C.

As for `COc1cc2ccnc(N3CCN(C(=S)NCc4cccnc4)CC3)c2cc1OC.Cl.Cl`, the melting point is 195 to 197 °C.

Regarding `COc1cc2ncnc(N3CCN(C(=O)Nc4ccc(Cl)c(C(F)(F)F)c4)CC3)c2cc1OC` [Compound 49, N-[4-Chloro-3-(trifluoromethyl)phenyl]-4-(6,7-dimethoxy-4-quinazolinyl)-1-piperazinecarboxamide], the melting point was in the range of 237 to 238 °C.

As for `COc1cc2ncnc(N3CCN(C(=S)Nc4cc(O)nc(O)n4)CC3)c2cc1OC` [Compound 277, N-(2,6-Dihydroxy-4-pyrimidinyl)-4-(6,7-dimethoxy-4-quinazolinyl)-1-piperazinethiocarboxamide], the melting point fell in the range of 283 to 285 °C.

Consider `COc1cc2ncnc(N3CCN(C(=S)NCC(=O)c4ccccc4)CC3)c2cc1OC` [Compound 445, 4-(6,7-Dimethoxy-4-quinazolinyl)-N-phenacyl-1-piperazinethiocarboxamide], for which the melting point was 99 to 100 °C.

In turn, `COc1cc2ncnc(N3CCN(C(=S)NCc4ccccc4)CC3)c2cc1OC` [Compound 125, N-Benzyl-4-(6,7-dimethoxy-4-quinazolinyl)-1-piperazinethiocarboxamide] registered a melting point of 187 to 189 °C.

As to `COc1cc2ncnc(N3CCN(C(=S)Nc4ccc(Oc5ccccc5)cc4)CC3)c2cc1OC` [Compound 61, 4-(6,7-Dimethoxy-4-quinazolinyl)-N-(4-phenoxyphenyl)-1-piperazinethiocarboxamide], the melting point fell in the range of 242 to 243 °C.

`CCN(CC)c1ccc(NC(=S)N2CCN(c3ncnc4cc(OC)c(OC)cc34)CC2)cc1` [Compound 72, N-(4-Diethylaminophenyl)-4-(6,7-dimethoxy-4-quinazolinyl)-1-piperazinethiocarboxamide]: the melting point was in the range of 147 to 148 °C.

On to `Cl.Cl.S=C(NCc1cccnc1)N1CCN(c2ccnc3ccc(Cl)cc23)CC1`, for which the melting point lay within 162 to 164 °C.

`COc1cc2ncnc(N3CCN(C(=O)Nc4cccc([N+](=O)[O-])c4)CC3)c2cc1OC` [Compound 76, 4-(6,7-Dimethoxy-4-quinazolinyl)-N-(3-nitrophenyl)-1-piperazinecarboxamide] yielded a melting point of 123 to 125 °C.

In turn, `N#Cc1ccc(NC(=O)N2CCN(c3ncnc4cc5c(cc34)OCCO5)CC2)cc1` [Compound 373, N-(4-Cyanophenyl)-4-(6,7-ethylenedioxy-4-quinazolinyl)-1-piperazinecarboxamide] showed a melting point of 246 to 247 °C.

As to `CCOc1cc2ncnc(N3CCN(C(=O)Nc4ccc(Oc5ccccc5)cc4)CC3)c2cc1OC` [Compound 335, 4-(7-Ethoxy-6-methoxy-4-quinazolinyl)-N-(4-phenoxyphenyl)-1-piperazinecarboxamide], the melting point lay within 174 to 175 °C.

Molecule `COc1cc2nccc(N3CCN(C(=O)Nc4ccc(Oc5ccccc5)cc4)CC3)c2cc1OC` [Compound 407, 4-(6,7-Dimethoxy-4-quinolyl)-N-(4-phenoxyphenyl)-1-piperazinecarboxamide] showed a melting point of 204 to 206 °C.

Consider `COc1cc2nncc(N3CCN(C(=S)NCc4cccnc4)CC3)c2cc1OC` [Compound 427, 4-(6,7-Dimethoxy-4-cinnolinyl)-N-(3-picolyl)-1-piperazinethiocarboxamide], for which the melting point is 181 to 190 °C.

On to `CCOc1cc2c(N3CCN(C(=S)NCc4ccccc4)CC3)ncnc2cc1OC` [Compound 348, N-Benzyl-4-(6-ethoxy-7-methoxy-4-quinazolinyl)-1-piperazinethiocarboxamide], for which the melting point fell in the range of 170 to 171 °C.
